Measurements from patent US8460635B2, “Fenretinide derivatives and uses thereof as therapeutic, diagnostic and imaging agents” (Albert Einstein College of Medicine of Yeshiva University, priority 2008, dated 2013).
Read-outs that look alike come from different tables or passages of the source. Blank lines part the entries; values can stand above or below the molecule they belong to.

What was measured:
[1] = system: MON (INI1−/−) rhabdoid tumor cells; assay: MTS survival assay of rhabdoid tumor cells; format: cell-based
Experimental: FIG. 1A-1D. Effect of 4HPR derivatives with phenyl group substitutions on survival of rhabdoid tumors cells. MON (INI1−/−) cells were treated with serial dilutions of the 4HPR, ATRA and 4HPR derivatives for three days. Survival assay was carried out as described using MTS assay kit. Percentage of cell survival plotted against concentration of drugs (Mean+/−SEM).
FIG. 2. Effect of fenretinide peptidomimitic derivatives on the survival of rhabdoid tumor cells in culture. % survival of MON rhabdoid tumor cells treated with fenretinide derivatives, when compared to the vehicle treated control. The data in all the panels represent the average of triplicate experiments, and the standard error is indicated.
(§1) The rhabdoid cell line (MON) (88) was cultured in RPMI 1640 supplemented with 10% fetal bovine serum, 2 mM L-glutamine, 50 U/ml penicillin, and 50 μg/ml streptomycin at 37° C. with 5% CO2 and 95% humidified air. 4-(Fenretinide) was either obtained from NCI or synthesized in house. Fenretinide or its synthetic derivatives were reconstituted in 100% ethanol as a 10 mM solution and the aliquots were stored frozen at −80° C., protected from light. Working solutions (50 μM or 200 μM) and serial dilutions were prepared by diluting the stock solution with culture medium, such that the concentration of ethanol was <2% in all dilutions.
Aliquots of 8×10^3 MON cells were plated in 96-well microdilution plates. Twenty four hours after seeding, the cells were treated with serial dilutions of each drug. Following incubation for 24 or more hours, each well was stained with 20 μl of MTS [3-(4,5-dimethylthiazol-2-yl)-5-(3-carboxymethoxyphenyl)-2-(4-sulfophenyl)-2H-tetrazolium, inner salt] that was mixed 20:1 V/V in PMS (phenazine methosulphate, CellTiter 96® AQueous Non-Radioactive Cell Proliferation Assay Kit, Promega, Madison, Wis.) added to each of the well in the microtiter plate containing 100 μl of culture medium. After 4 h incubation, the plates were analyzed by an ELISA plate reader (Wallac Victor, 1420 Multilabel Counter, Perkin Elmer) at 490 nm wave-length. Cell plating, drug treatment and survival assay were performed using the epMotion 5070 automated liquid handling robotic system (Eppendorff, Westbury, N.Y.).
Statistical analysis of the data was carried out using GraphPad Prism (San Diego, Calif.). Relative IC50 values were calculated using the nonlinear regression curve fit with sigmoidal dose response (variable slope) function. Relative IC50 is defined as the concentration giving a response exactly half way between the fitted top and bottom of the survival curve when graphed as percent inhibition versus the log of the concentration of compound. The fitting error, or standard error describes the error involved in fitting the curve.

[2] = Precipitation / solubility in cell culture medium; format: physicochemical
Experimental: as §1

[3] = system: MON (INI1−/−) rhabdoid tumor cells; assay: MTS survival assay of rhabdoid tumor cells; format: cell-based; details: charcoal adsorbed serum
tumor cell = details: in vitro, literature (ref 1); read-out: IC50s, suppression of tumor cell growth in vitro; cited from earlier work
MON cells = assay: FACS analysis of cell cycle and sub-G1 (apoptosis); format: cell-based; details: 2 days
Experimental: (§2) FIG. 3A-3B. Induction of cell cycle arrest and apoptosis by halogen derivatives of fenretinide. A. Cell cycle profile determined by FACS analysis of MON cells treated with either 5 or 10 μM concentrations of fenretinide and its derivatives for 2 days. Percentage of cells at various stages of cell cycle (G1, S and G2) is indicated. B. Percentage of MON cells at sub-G1 when exposed for 2 days to fenretinide and its derivatives.
as §2, with “4A-4B.” for “3A-3B.”, “peptidomimetic” for “halogen”
(§3) The effects of fenretinide, halogen substitutes, and peptidomimetic derivatives on cell cycle regulation and apoptosis were tested by using: i) cell survival assay (MTS); ii) FACS analysis; and iii) immunoblot analysis to determine the effect on Cyclin D1.

[4] = 200 mg/day (MTD), breast cancer patients, literature (ref 3); cited from earlier work
Cyclin D1 = assay: Immunoblot analysis of Cyclin D1 expression; format: cell-based; details: biomarker expression, Table 3
Experimental: FIG. 5A-5B. Effect of fenretinide, its derivatives and peptidomimetic compounds on expression of Cyclin D1. Immunoblot analysis to determine the effect of fenretinide and its halogen substitutes (A) and peptidomimetic compounds (B). GAPDH is a loading control.
This assay was performed using a routine laboratory protocol as previously described using chemiluminescence detection method (30). The following antibodies were used: polyclonal α-cyclin D1 Ab-3 (NeoMarkers, Cat# RB-010-P0), monoclonal α-cyclin D1 DCS-6 (NeoMarkers, Cat# MS-210-P1), α-β-Actin (Sigma Cat# A5441) and α-Tubulin-α (Sigma, Cat # T5168).
as §3

[5] = MON cells, nonlinear regression, sigmoidal dose response, read-out: Relative IC50
[6] = MON rhabdoid cells, survival assay, values in text, read-out: IC50
[7] = regular FBS, read-out: IC50 (in regular FBS)

- behaviour in cell culture medium (precipitation / insolubility) [2]: did not show any precipitation
Structure (SMILES): CCC1=C(C)/C(=C/c2ccc(C(=O)Nc3ccc(O)c(I)c3)cc2)CCC1(C)C [Compound 11d, (E)-4-((3-ethyl-2,4,4-trimethylcyclohex-2-enylidene)methyl)-N-(4-hydroxy-3-iodophenyl)benzamide]
- IC50 [1, 5]: 3.15 µM
- IC50 [1, 6]: 3 µM
- cytotoxic activity against rhabdoid tumor cells (in words) ([1]; compared with 4-HPR): more active when compared to parent Fenretinide

- behaviour in cell culture medium (precipitation / insolubility) [2]: precipitated in cell culture medium
Structure (SMILES): CC1=C(/C=C/C(C)=C/C=C/C(C)=C/C(=O)Nc2ccc(I)cc2)C(C)(C)CCC1 [5(d), (2E,4E,6E,8E)-[3,7-Dimethyl-9-(2,6,6-trimethyl-1-cyclohexenyl)-nona-2,4,6,8-tetraenoylamino]-(4-iodo)phenylamide]
- IC50 [1, 7]: > 50 µM
- IC50 [3]: > 15 µM

Structure (SMILES): CC1=C(/C=C/C(C)=C/C=C/C(C)=C/C(=O)Nc2ccc(O)cc2)C(C)(C)CCC1 [Compound 4-HPR, N-(4-hydroxyphenyl)retinamide, reference compound]
- IC50 [1, 5]: 14.7 µM
- IC50 ([1]; MON cells, three days, compounds in FIG. 1A-1D, concentration of drug required to kill 50% of cells, read-out: IC50): 19 µM
- IC50 [1, 6]: ~15 µM
- IC50 [1, 7]: 12 to 19 µM
- IC50 (tumor cell): 1 to 10 µM
- % G1 (MON cells; 5 μM, Table 5): 86.32%
- % G2 (MON cells; 5 μM, Table 5): 6.73%
- % S (MON cells; 5 μM, Table 5): 6.95%
- SubG1 (percentage of MON cells at sub-G1) (MON cells; 5 μM, Table 5): 37.12%
- % G1 (MON cells; 5 μM, Table 6): 86.32%
- % G2 (MON cells; 5 μM, Table 6): 6.49%
- % S (MON cells; 5 μM, Table 6): 6.95%
- SubG1 (percentage of MON cells at sub-G1) (MON cells; 5 μM, Table 6): 37.12%
- % G1 (MON cells; 10 μM, Table 5): 85.41%
- % G2 (MON cells; 10 μM, Table 5): 6.66%
- % S (MON cells; 10 μM, Table 5): 7.93%
- SubG1 (percentage of MON cells at sub-G1) (MON cells; 10 μM, Table 5): 73.98%
- % G1 (MON cells; 10 μM, Table 6): 85.41%
- % G2 (MON cells; 10 μM, Table 6): 7.60%
- % S (MON cells; 10 μM, Table 6): 8.02%
- SubG1 (percentage of MON cells at sub-G1) (MON cells; 10 μM, Table 6): 73.98%
- plasma concentration [4]: 1000 nM
- IC50 [3]: 2 µM
- Repression of Cyclin D1 (Cyclin D1): Yes
